From the NIST ThermoML archive (doi:10.1016/j.jct.2016.08.022) come the findings set out here.

This data set can be described thus: Molar enthalpy of transition or fusion. The note with it: Crystal 2; Adiabatic calorimetry.

± gives the expanded uncertainty stated by the source.

As for `CCC(=O)O[C@]1(C(=O)COC(C)=O)CC[C@H]2[C@@H]3C[C@H](C)C4=CC(=O)C=C[C@]4(C)[C@H]3[C@@H](O)C[C@@]21C` [Methylprednisolone aceponate], the “Molar enthalpy of transition or fusion” value amounted to 0.0526 ± 0.00143 kcal/mol.
